One compound from patent US20190298664A1, “METHOD AND KIT FOR MYOCARDIAL REPERFUSION, AND METHOD FOR ATTENUATING OR REDUCING MYOCARDIAL REPERFUSION INJURY” (Academia Sinica, priority 2018, published 2019) can be followed below.

Experiment [1] addresses T1, PTP-PEST catalytic domain (Homo sapiens, UniProt Q05209).
T1 construct: PTP PEST Catalytic Domain construct (Amino Acid:1-300) with 6 His tag at N-terminal; 6 His (N, cleaved yes); made in house; host or cells: Sf9 insect cells (Sf9-VECL-01), Bac-to-Bac baculovirus system
T1 sequence (Q05209 1-300): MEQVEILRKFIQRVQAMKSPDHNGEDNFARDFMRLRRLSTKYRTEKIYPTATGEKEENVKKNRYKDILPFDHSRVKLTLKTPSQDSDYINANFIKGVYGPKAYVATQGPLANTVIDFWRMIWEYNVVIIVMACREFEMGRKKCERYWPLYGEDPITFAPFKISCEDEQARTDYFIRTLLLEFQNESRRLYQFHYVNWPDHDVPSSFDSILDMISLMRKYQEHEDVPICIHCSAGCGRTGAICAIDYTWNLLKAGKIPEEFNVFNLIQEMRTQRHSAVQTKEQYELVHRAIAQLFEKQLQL
The experiment is described as follows: IC50 kinetic assay: phosphatase activity of purified PTP-PEST catalytic domain with phospho-Paxillin peptide substrate. It counts as biochemical. Here is the method:
PTP PEST Catalytic Domain construct (Amino Acid:1-300) with 6 His tag at N-terminal were expressed in insect cell Sf9-VECL-01 Cell line, using Bac-to-Bac Baculovirus expression system. Cells were infected with baculovirus at 27° C. and harvested after 65 hours of infection. Post harvesting cell suspension were centrifuged and pellet was stored at -80° C. To purify the protein, pellet was thawed and then dissolved in lysis buffer containing 50 mM Tris-HCl, 500 mM NaCl, 5% Glycerol, pH-7.5, and protease inhibitor cocktail tablet, EDTA free from Roche. Cell were lysed by TS-series cell disrupter (Constant System Ltd.) then lysate was centrifuged at 20000 RPM for 30 minutes at 4° C. using JA25.5 rotor in an Avanti J-26-XPI Centrifuge. […] After SEC purity of the protein was analyzed by SDS page and quantification was carried out by using NanoDrop Spectrophotometer. […] The absorbance of the reaction was measured at 650 nm by using Tecan Infinite […] instrument. The absorbance value was converted to amount of phosphate produced in reaction based on the standard curve generated from known phosphate concentration. Data generated in the reaction was fitted using nonlinear regression mode and IC50 value were calculated based on the equation function “Log(inhibitor) vs response-variable slope” from Graph Pad Prism 5.0.

Experiment [2] has as its system overall PTP activity in H9C2 cells. Nature of the experiment: Overall PTP activity (orthovanadate-sensitive fraction) by pNPP assay in H9C2 cells. Conditions: 5, 10 and 20 μmol/L for 20 min. It counts as cell-based. As for the experimental part: For heart tissue: At the end of the treatment, the left ventricle of mouse heart is gently homogenized in ice-cold RIPA buffer with Ser/Thr phosphatase inhibitors inside. Then the samples are centrifuged at 16,100×g for 10 min at 4° C. to remove the debris. Tissue extract (1 mg) is incubated with pNPP (2 mM) in reaction buffer at 37° C. for 60 min on a shaker. At the end of incubation, the reaction is terminated by addition of the same volume of 0.1 N NaOH. The released p-nitrophenolate ion is measured by spectrophotometry reading the absorbance at 405 nm. For H9C2 cell: At the end of the treatment, the cells are collected in ice-cold RIPA buffer with Ser/Thr phosphatase inhibitors inside. Then the samples are centrifuged at 16,100×g for 10 min at 4° C. to remove the debris. The cell lysate is incubated with pNPP […] in reaction buffer at 37° C. for 90 min on a shaker. The reaction is terminated by adding the same volume of 0.1 N NaOH. The released p-nitrophenolate ion is measured by spectrophotometry reading the absorbance at 405 nm. H9C2 cell lines were purchased from ATCC® organization, U.S. Cell cultures were maintained in Dulbecco modified Eagle medium (DMEM) supplemented with 10% fetal bovine serum (FBS) and 1% Penicillin/Streptomycin at 37° C. incubator in a 5% CO2 humid atmosphere.

Experiment [3] deals with I/R mice. The experiment is described as follows: Echocardiography (ejection fraction) in I/R mice. It counts as in vivo, mouse. Conditions: 2 mg/kg IP. Here is the method:
We anesthetized the mouse with 5% isoflurane mixed with room air until loss of sensation of pain and then maintained the mouse in anesthesia status with 2% isoflurane mixed with room air through the whole procedure. The mouse's body temperature was maintained at 37° C. by a heating pad. After the mouse was intubated, we provided artificial ventilation to the mouse with a small animal ventilator. Then the chest cavity was opened at the second intercostal space and homemade chest retractors were utilized to widen the incision. We pulled the pericardium apart carefully and exposed the left anterior descending artery (LAD). A 7-0 silk was put underneath the LAD at the position of the tip of the left auricle, a 6 mm length of PE-10 tube was put on the surface of the LAD, and then a double knot was made to occlude the blood flow of LAD. The success of ligation was confirmed by […] anterior wall of the LV. For the reperfusion group, the LAD knot would be untied for the purpose of reperfusion after 1 hour of ischemia. For the sham operation group, all procedures were the same except for the knot that occluded the LAD flow. After the successful procedure, we left the silk in situ, closed the chest cavity and weaned the animal from the ventilator. At 1 day and 1 week post the indicated I/R episode, the mice were received echocardiography for evaluating the cardiac function. […]

Molecules are shown by their SMILES. pIC50: −log10 of the molar value. Read-outs that look alike come from different tables or passages of the source.

One may read the pIC50 as the negative decadic logarithm of the IC50, by convention in mol/L. `CC(=O)OC[C@H]1O[C@@H]([S-])[C@H](OC(C)=O)[C@@H](OC(C)=O)[C@@H]1OC(C)=O.CCP(CC)CC.[Au+]` [Auranofin, auranofin]: the pIC50 in experiment [1] (read-out: IC50 of the auranofin to the PTP-PEST, as restated in the summary) was 4.41; in experiment [1] (synthetic phospho-Paxillin peptide as substrate, 25 nM protein, 50 μM peptide, 30° C., 30 min, read-out: IC50 on enzymatic activity of purified PTP-PEST), 4.41. Besides, in experiment [2], the “Overall PTP activity in H9C2 cells” value was “decreased”. Besides, the Cardiac ejection fraction entry in experiment [3] (one day post-MI) was “significant improvement”. The “Restoration of cardiac performance judged by echocardiography” value in experiment [3] (one week post-MI) is “sustained up to one week”.
